We go through nine compounds from US5037812A, “Tumor cell growth-inhibiting pharmaceutical compositions containing phosphino-hydrocarbon-gold, silver or copper complexes” (priority 1986, dated 1991).

pIC50: −log10 of the molar value. Several values for one entry are separate records, joined by “and”; a condition that tells them apart may be missing. Identical values can stand only once.

The subject of one data set is B16 melanoma cells. The data set can be described thus: B16 melanoma cell assay, clonogenic capacity in vitro after two-hour exposure. The class given is cell-based. The note with it: 2-hour exposure; read-out: IC50: concentration which inhibits cloning efficiency of B16 melanoma cells by 50%. The method, then:
The B16 melanoma cell assay measures the ability of a compound to inhibit the clonogenic capacity of cells in vitro following a two-hour exposure to the compound.
B16 melanoma (highly metastatic subline, F10) are used and maintained as monolayer cultures in Minimal Essential Media (Grand Island Biological Col., Grand Island, N.Y.) supplemented with 10% calf serum, 1% antibiotics in a 5% CO2 humidified incubator at 37° C. Asynchronous populations of cells are harvested and replated to 5000 cells/plate in sterile 60 mm×15 mm petri plates. Plates are incubated overnight to allow attachment of the cells to the plate. Cells are treated with a Formula (I) or Formula (II) compound/under sterile conditions, allowed to react for 2 hours followed by aspiration of medium. Plates are washed one time with 5 ml of phosphate buffered saline (PBS), followed by the addition of 5 ml of fresh medium. Plates are incubated for 5 days at 37° C. in a CO2 incubator. Viability is measured by the ability of a cell to form a colony of greater than 50 cells. Colonies are fixed with 0.5% crystal violet in 95% ethanol. Plates are dried and counted with a Biotran III Automatic Count Totalizer (New Brunswick Scientific Co., Edison, N.J.). Mean and standard deviation of triplicate samples are determined for each drug concentration. The data are analyzed plotting the log of the survival fraction (number of colonies in drug treated plates/number of colonies in controls) versus the drug concentration.
^a Concentration which inhibits cloning efficiency of B16 melanoma
cells by 50% on a 2hour exposure

A further data set concerns P388 leukemia. The data set can be described thus: ip P388 leukemia mouse model. The class given is in vivo, mice (B6D2F1). The note with it: for MTD (maximally tolerated dose): B6D2F female mice, ip qDX5; for ILS max (maximum increase in lifespan): mice bearing ip P388 leukemia, ip days 1-5 at MTD, slash-separated figures are separate experiments. As to the method:
This tumor system is widely accepted as an antitumor agent screening tool because it is sensitive to virtually all of the clinically active antineoplastic agents; quantitative and reproducible; amenable for large-scale screening; and predictive for activity in other animal tumor models.
10^6 P388 leukemia cells are inoculated ip in B6D2F1 mice. Twenty-four hours later, if the tumor inoculum proves to be free of bacterial contamination (as determined by 24 hours incubation in thioglycollate broth), animals are randomized into groups of 6 and housed in shoebox cages. […] An equal volume of saline or water is added; if the drug comes out of solution an equal volume of Cremophor (polyethoxylated castor oil) is added and then saline or water, as to a concentration such that the desired dose is delivered in 0.5 ml. The final concentration of DMA, ethanol or Cremophor is 10 percent. Dilutions for lower doses are made with saline or water so that there is a decreasing proportion of organic solvents in the vehicle with decreasing dosage. […] Formulations are prepared immediately prior to injection. The Formula (I) and Formula (II) compounds are administered ip on Days 1 through 5 (i.e., treatment is initiated 24 hrs after tumor inoculation). Each experiment includes three groups of 6 animals as untreated controls and animals treated with a positive control, cisplatin, at two dose levels. Animals are weighed as a group on Days 1, 5 and 9 and average weight change (Δwt.) is used as a reflection of toxicity. Each experiment also includes an inoculum titration--groups of 8 mice inoculated ip with 10^5 to 10^0 P388 leukemia cells. The titration is used as a quality control check for the performance of the tumor model. Animals are monitored daily for mortality and experiments are terminated after 45 days. The endpoint is median survival time (MST) and increase in lifespan (ILS) which is the percentage of increase in MST relative to untreated controls.

The next data set relates to B16 melanoma. The data set can be described thus: in vivo ip B16 melanoma assay. More on the design: species or system mice (B6D2F1). Particulars: ip qDX10; for MTD (maximally tolerated dose): B6D2F1 mice; for ILS (maximum increase in lifespan): mice bearing ip B16 melanoma, slash-separated figures are separate experiments. As to the method:
Daily treatment is begun 24 hours after tumor implantation and is continued daily for ten (10) days. The route of drug administration is ip. The mice are monitored daily for survival for sixty (60) days. Antitumor activity is assessed by prolongation of median survival time. An ILS of ≥25% indicates activity in this tumor model.
^(b) maximally tolerated dose for B6D2F1 mice on an ip qDX10
^(c) maximum increase in lifespan produced in mice bearing ip B16

In data set [1] the test system is M5076 reticulum cell sarcoma. The data set can be described thus: ip M5076 reticulum cell sarcoma in mice. It is filed as in vivo, mice (B6D2F female). Particulars: for MTD (maximally tolerated dose): B6D2F female mice, ip qDX10; for ILS max (maximum increase in lifespan): mice bearing ip M5076, ip qDX10 at MTD, slash-separated figures are separate experiments. The method, then: Another tumor model used for evaluation of tumor growth inhibiting drugs is intraperitoneally implanted M5076 reticulum cell sarcoma in mice. […] Drugs are administered ip. Daily treatment is begun 24 hours after implantation and is continued for ten days. The treatment regimen for M5076 is more prolonged than for P388 because of the slower growth rate and longer control survival time of the M5076 tumor. Compounds of Formula (I) and Formula (II) were evaluated in this assay. An evaluation of several compounds of Formula (I) in the M5076 reticulum cell sarcoma assay at their maximally tolerated dose (MTD) is set forth in Table III. An ILS of ≥25% indicates activity in this tumor model.
^(b) maximally tolerated dose for B6D2F female mice on an ip qDX10
^(c) maximum increase in lifespan produced in mice bearing ip M5076

For data set [2] the following is noted: Struck et al., J. Med. Chem., 9, 414-416 (1966); cited from earlier work.
Data set [3] has as its system M5076 reticulum cell sarcoma. Particulars: positive control, general statement; cited from earlier work.
Data set [4] has as its system mammary adenocarcinoma 16/c. The note with it: positive control, general statement; cited from earlier work.
In data set [5] the test system is mammary adenocarcinoma 16/c. The data set can be described thus: sc mammary adenocarcinoma 16/c tumor model. Particulars: q4D × 5, 6 mg/kg; for Inhibition: Day 21. It is filed as in vivo, mice (C3H). As to the method: In this experiment, the tumor was implanted sc in C3H mice, and the drug was administered ip or iv on an intermittent treatment schedule, i.e., once on days 1, 5, 9, 13 and 17. Tumors were measured 3 weeks after implantation, and activity was assessed by degree of tumor growth inhibition.
*N.P. = Proportion of mice without palpable tumors on Day 21

For data set [6] the following is noted: 15 h.
Method: Such solubility was determined as follows: The compound in question was dissolved or suspended in absolute ethanol (250 mg solid per 1.0 ml ethanol). To the resulting solution or suspension, water (9.0 times the volume of ethanol) was added. This suspension was stirred vigorously for 15 hours, then filtered through a 0.45 μm poly(tetrafluoroethylene) (PTFE) filter. […] The HPLC system was as follows:
Column PLRP-S, 5μm, obtained from Polymer Laboratories, Inc.
Mobile Phase 9:1 acetonitrile:0.1% tetra-n-butylammonium hydrogen sulfate (50° C., 1.0 ml-min-^-1)
Detection Ultraviolet (250 nm)

Regarding `[Au+].[Cl-].c1ccc(P(CCCP(c2ccccc2)c2ccccc2)c2ccccc2)cc1.c1ccc(P(CCCP(c2ccccc2)c2ccccc2)c2ccccc2)cc1` [compound 4, Bis[1,3-Bis(diphenylphosphino)propane]Gold(I) Chloride], the pIC50 in the data set with B16 melanoma cells was 6.22. Besides, in the data set on P388 leukemia, the “MTD (maximally tolerated dose)” value amounted to 3 mg/kg and the “ILS max (maximum increase in lifespan)” value was 89 ± 28%. Moreover, in the data set on B16 melanoma, the “MTD (maximally tolerated dose)” value is 2 mg/kg; the “ILS (maximum increase in lifespan)” value is 34% and 28% and 40%. In addition, in data set [1], the “MTD (maximally tolerated dose)” value is 2 mg/kg and the “ILS max (maximum increase in lifespan)” value is 116%.

Regarding `c1ccc(P(CCP(c2ccccc2)c2ccccc2)c2ccccc2)cc1` [1,2-bis(diphenyl-phosphino)ethane], the “cytotoxic activity (in words)” value in data set [2] is “cytotoxic activity”.

On to “Tris[1,2-bis(diphenylphosphino)ethane]Dicopper(I) Chloride”, for which, in the data set with P388 leukemia, the “MTD (maximally tolerated dose)” value stood at 2 mg/kg; the “ILS max (maximum increase in lifespan)” value is 100% and 115%. In addition, in the data set on B16 melanoma, the “MTD (maximally tolerated dose)” value turned out to be 1 mg/kg and the “ILS (maximum increase in lifespan)” value came to 54%. Moreover, in [1], the “MTD (maximally tolerated dose)” value was determined as 1.6 mg/kg and the “ILS max (maximum increase in lifespan)” value stood at 60%.

A word on the Inhibition: it is the percentage by which the read-out fell short of the control. Read a high Inhibition as a response far below the control. `N.N.[Cl][Pt][Cl]` [Cisplatin, reference compound]: the “tumor growth inhibition (in words)” value in [3] is recorded as “complete tumor growth inhibition”. In data set [4], the “inhibition of the growth of mammary adenocarcinoma 16/c (in words)” value is listed as “complete inhibition”. Also, the “Mean Tumor Volume on Day 21” value is given as 30 ± 64 mm^3 in data set [5] (Experiment 1, ip); 0 mm^3 in data set [5] (Experiment 2, ip); 21 ± 61 mm^3 in data set [5] (Experiment 2, iv); 586 ± 266 mm^3 in data set [5] (Experiment 3, ip). Further, the “N.P. (proportion of mice without palpable tumors on Day 21)” value was 6/8 in [5] (Experiment 1, ip); 8/8 in data set [5] (Experiment 2, ip); 7/8 in [5] (Experiment 2, iv); 0/8 in data set [5] (Experiment 3, ip). Further, the Inhibition in [5] (Experiment 1, ip) came out at 97%; in data set [5] (Experiment 2, ip) it was 100%; in data set [5] (Experiment 2, iv), 98%; in [5] (Experiment 3, ip), 37%.

Turning to “Bis[cis-1,2-bis(diphenylphosphino)ethylene]Gold(I) Chloride [compound 3]”, the pIC50 in the data set with B16 melanoma cells is 5.70. For the same compound, in the data set on P388 leukemia, the “MTD (maximally tolerated dose)” value is 2 mg/kg and the “ILS max (maximum increase in lifespan)” value is recorded as 92 ± 26%. For the same compound, in the data set on B16 melanoma, the “MTD (maximally tolerated dose)” value is 1.5 mg/kg and the “ILS (maximum increase in lifespan)” value amounted to 35%. In [1], the “MTD (maximally tolerated dose)” value stood at 2.4 mg/kg and the “ILS max (maximum increase in lifespan)” value turned out to be 69%.

As for `CCP(CC)CCP(c1ccccc1)c1ccccc1.CCP(CC)CCP(c1ccccc1)c1ccccc1.[Au+].[Cl-]` [compound 8], the “MTD (maximally tolerated dose)” value in the data set on P388 leukemia is 3 mg/kg; in data set [1], 2 mg/kg. Further, the “ILS max (maximum increase in lifespan)” value stood at 54 ± 16% with P388 leukemia and 46% in data set [1].

With `O=C([O-])C(O)CO.[Au+].c1ccc(P(CCP(c2ccccc2)c2ccccc2)c2ccccc2)cc1.c1ccc(P(CCP(c2ccccc2)c2ccccc2)c2ccccc2)cc1` [compound 25, Bis[1,2-bis(diphenylphosphino)ethane]gold(I) DL-2,3-dihydroxypropanoate], in the data set with P388 leukemia, the “MTD (maximally tolerated dose)” value amounted to 2 mg/kg; the “ILS max (maximum increase in lifespan)” value was 55% and 65%. Moreover, in the data set with B16 melanoma, the “MTD (maximally tolerated dose)” value was 0.75 mg/kg and the “ILS (maximum increase in lifespan)” value is listed as 28%. In addition, in data set [6], the “Solubility in 9:1 Water:Ethanol” value was determined as 2200 µg/mL.

As for “Bis[1,2-bis(diphenylphosphino)ethane]Silver(I) Nitrate [compound 2]”, the pIC50 with B16 melanoma cells is 5.40. Besides, the “MTD (maximally tolerated dose)” value in the data set with P388 leukemia was determined as 3 mg/kg; in [1] it was 2 mg/kg. The “ILS max (maximum increase in lifespan)” value with P388 leukemia was 89% and 90%; in [1] it was 48%.

As for `C1=C[PH](c2ccccc2)(c2ccccc2)[Cu+]2([PH]1(c1ccccc1)c1ccccc1)[PH](c1ccccc1)(c1ccccc1)C=C[PH]2(c1ccccc1)c1ccccc1.[Cl-]` (stereo not drawn) [compound 13, Bis[cis-1,2-bis(diphenylphosphino)ethylene]Copper(I) Chloride], in the data set with P388 leukemia, the “MTD (maximally tolerated dose)” value turned out to be 3 mg/kg and the “ILS max (maximum increase in lifespan)” value amounted to 70 ± 23%. In the data set on B16 melanoma, the “MTD (maximally tolerated dose)” value worked out at 0.75 mg/kg and the “ILS (maximum increase in lifespan)” value was determined as 42%. Further, in data set [1], the “MTD (maximally tolerated dose)” value came to 2 mg/kg and the “ILS max (maximum increase in lifespan)” value amounted to 40%.
